The values that follow come from US20210322415A1 (priority 2016, published 2021).

The subject of one test is tumors. Particulars: reported in literature; cited from earlier work.
Test [1] relates to SW620, Calu6 and A498 tumor xenografts. The experiment in a line: Tumor xenograft efficacy studies with intermittent dosing. Type of test: in vivo, nude or scid mice. Particulars: for anti-tumor effects: oral once daily. From the text: Tumors were selected and randomized into groups when tumor volume reached approximately 0.2 cm^3. […] Groups of 10 animals were used, however in the final cycle cohorts of 5 animals were removed in between dosing group to support assessment of pharmacodynamic biomarkers in the tumor.

A further test has as its target c-kit (Homo sapiens, UniProt P10721). The experiment in a line: Target cover in pre-clinical models: modelled mean free plasma concentration vs cellular IC50. Type of test: in vivo. As to conditions: doses up to 2.4 mg/kg.
The subject of test [2] is OV2022 tumour (ovarian cancer) xenografts. As to the kind of experiment: OV2022 patient derived tumour xenograft efficacy study. Type of test: in vivo. Particulars: 3 mg/kg, 5 days on 2 days off vs daily, alone or with 100 mg/kg olaparib. For orientation: Xenograft models place foreign cells or tissue in a host animal.

The structures appear in SMILES notation.

c-kit, sequence (P10721 26-976): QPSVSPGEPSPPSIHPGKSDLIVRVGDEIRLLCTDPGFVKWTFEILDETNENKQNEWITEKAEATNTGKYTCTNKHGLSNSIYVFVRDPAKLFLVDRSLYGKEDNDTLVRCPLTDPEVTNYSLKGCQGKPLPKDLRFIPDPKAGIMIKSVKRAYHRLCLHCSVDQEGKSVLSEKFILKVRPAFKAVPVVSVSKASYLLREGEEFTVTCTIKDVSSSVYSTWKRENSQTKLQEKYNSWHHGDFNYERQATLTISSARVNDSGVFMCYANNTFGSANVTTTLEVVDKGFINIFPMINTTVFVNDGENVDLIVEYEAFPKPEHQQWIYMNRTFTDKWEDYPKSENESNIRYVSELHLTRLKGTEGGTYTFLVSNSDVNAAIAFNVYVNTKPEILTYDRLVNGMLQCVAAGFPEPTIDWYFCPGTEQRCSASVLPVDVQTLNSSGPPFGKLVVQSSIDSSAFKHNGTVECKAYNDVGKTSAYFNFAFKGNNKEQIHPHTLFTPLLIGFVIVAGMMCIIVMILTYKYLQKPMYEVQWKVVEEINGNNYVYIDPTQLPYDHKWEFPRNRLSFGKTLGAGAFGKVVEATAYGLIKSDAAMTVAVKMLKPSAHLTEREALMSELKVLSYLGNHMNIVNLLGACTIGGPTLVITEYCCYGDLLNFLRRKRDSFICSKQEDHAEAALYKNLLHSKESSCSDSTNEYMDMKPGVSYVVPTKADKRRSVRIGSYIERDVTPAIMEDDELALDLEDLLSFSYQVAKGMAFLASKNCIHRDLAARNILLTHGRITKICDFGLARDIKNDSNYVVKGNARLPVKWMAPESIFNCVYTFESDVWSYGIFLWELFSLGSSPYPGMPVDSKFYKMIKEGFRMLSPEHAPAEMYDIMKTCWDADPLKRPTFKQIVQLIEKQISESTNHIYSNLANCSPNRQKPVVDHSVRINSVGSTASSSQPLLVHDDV
Description for c-kit: 4.8 mg/kg (FIGS. 1M-1P) following dosing zs regimens of once daily continuous (QDCont), once daily 5 days on 2 days off (QD5on2off), or once daily 4 days (QD4on3off). […] The reduction in PK is shown following the last dose of drug (at either 4 or 5 days dosing), and overlaid on each plot (horizontal lines) are the cellular IC50 values generated in vitro for inhibition of pVEGFR-1,-2, pKit, pPDGFRα and pPDGFRβ, as indicated. For the plots exemplifying VEGFR and Kit cover, R-P stands for receptor phosphorylation in a cell based assay; C-P stands for cell proliferation; for VEGFR plots, T-G stands for tubule growth in an endothelial-fibroblast co-culture assay. […] For the graphs depicting PDGFRα and β cover, inhibition of PDGFRα and PDGFRβ phosphorylation and PDGFBB or PDGFAA driven proliferation are shown together with the relevant cell lines.

For `COc1cc2c(Oc3ccc4[nH]c(C)cc4c3F)ncnc2cc1OCCCN1CCCC1.O=C(O)/C=C\C(=O)O` [cediranib, 4-[(4-fluoro-2-methyl-1H-indol-5-yl)oxy]-6-methoxy-7-[3-(pyrrolidin-1-yl)propoxy]quinazoline maleate], the “tumor growth in a range of preclinical models” value in the test with tumors is “inhibit the growth of tumors in a dose-dependent manner”. Besides, the “efficacy (mean tumor volume versus time)” value in test [1] (1.5 mg/kg, 4/3 schedule, three 7-day cycles (FIG. 5)) is on record as “in 2 out of the three models intermittent dosing of cediranib at 1.5 mg/kg on a 4/3 schedule maintains efficacy”; in test [1] (1.5 mg/kg, 5/2 schedule, three 7-day cycles (FIG. 3)), “maintains efficacy”; in test [1] (3 mg/kg, 4/3 schedule, three 7-day cycles (FIG. 6)), “maintains efficacy”; in test [1] (3 mg/kg, 5/2 schedule, three 7-day cycles (FIG. 4)) it was “maintains efficacy”. The anti-tumor effects entry in test [1] (4 days on 3 days off schedule) is on record as “maintains anti-tumor effects albeit at not as effectively as the 5/2 schedule”; in test [1] (5 days on 2 days off schedule, monotherapy), “maintains anti-tumor effects”. In test [1] (preclinical in vivo data, 5 days on/2 days off vs daily), the “anti-tumor activity, intermittent compared to daily schedule” value is recorded as “no difference in anti-tumor activity”. In addition, on c-kit, the “target cover versus c-kit” value was “achieving target cover”. In addition, the “efficacy of intermittent schedule versus constant dose” value in test [2] is recorded as “equivalent efficacy”.
